The structures appear in SMILES notation. Where a name gives a salt, the structure may show the parent alone. Marks after values point to notes of the source that are not given here.

A short description of the first series: logP determination via retention times, calibrated with unbranched alkan-2-ones. The class given is physicochemical. The conditions noted are these: HPLC on reversed-phase C18, method *: 40° C., 0.1% aqueous formic acid and acetonitrile, linear gradient 10% to 95% acetonitrile.
As for `O=C(Nc1cccc(Nc2ncc(Cl)c(NC3CC3)n2)c1)c1ccco1` [Example 99], the logP is recorded as 1.62*.

In the case of `CC(C)(C)OC(=O)Nc1ccc(Nc2ncc(Cl)c(NC3CC3)n2)cc1` [Example 100], the logP is 2.12*.

Take `CC(=O)c1cc(Nc2ncc(Cl)c(NC3CC3)n2)ccc1O` [Example 101]: the logP was 1.65*.

As to `CN(C)S(=O)(=O)Oc1ccc(Nc2ncc(Cl)c(NC3CC3)n2)cc1` [Example 102], the logP is given as 2.08*.

Turning to `FC(F)Sc1ccc(Nc2ncc(Br)c(NC3CC3)n2)cc1` [Example 104], the logP is reported as 2.99*.

As for `CN1CC(=O)N(c2ccc(Nc3ncc(Cl)c(NC4CC4)n3)cc2)C1=O` [Example 107], the logP was 1.29*.

On to `COCC(C)Nc1ccc(Nc2ncc(Cl)c(NC3CC3)n2)cc1` (stereo not drawn) [Example 110], for which the logP is reported as 2.03*.

The series is the same for the next values; noted with them: method **: HPLC reversed-phase C 18, 43° C., 0.1% aqueous phosphoric acid and acetonitrile, linear gradient 10% to 95% acetonitrile.
With `NS(=O)(=O)c1cccc(Nc2ncc(Cl)c(NCC3CC3)n2)c1` [Example 16], the logP is 1.51**.

With `NS(=O)(=O)c1cc(Nc2ncc(Cl)c(NCC3CC3)n2)cc(C(F)(F)F)c1` [Example 18], the logP is 2.63**.

Turning to `O=S(=O)(c1cccc(Nc2ncc(Cl)c(NC3CC3)n2)c1)N1CCOCC1` [Example 19], the logP was 2.13**.

On to `CCCCNS(=O)(=O)c1ccc(Nc2ncc(Cl)c(NC3CC3)n2)cc1` [Example 22], for which the logP was 2.6**.

On to `CC(=O)NS(=O)(=O)c1ccc(Nc2ncc(Cl)c(NC3CC3)n2)cc1` [Example 24], for which the logP is 1.64**.

`CN(C)S(=O)(=O)c1cccc(Nc2ncc(Cl)c(NC3CC3)n2)c1` [Example 28]: the logP is listed as 2.04**.

In the case of `Cl.Clc1cnc(Nc2ccccc2)nc1NC1CC1` [Example 29], the logP was 1.75**.

For `Brc1cnc(Nc2ccccc2)nc1NC1CC1` [Example 30], the logP is reported as 1.8**.

For `O=C1CCCN1c1ccc(Nc2ncc(Cl)c(NC3CC3)n2)cc1` [Example 34], the logP was 1.45**.

With `O=C(O)c1ccc(Nc2ncc(Cl)c(NC3CC3)n2)cc1` [Example 35], the logP is reported as 1.55**.

In the case of `CC(=O)c1ccc(Nc2ncc(Cl)c(NC3CC3)n2)cc1.Cl` [Example 45], the logP was 1.99**.

As for `Cc1ccc(Nc2ncc(Cl)c(NC3CC3)n2)cc1S(=O)(=O)N(C)C` [Example 47], the logP was 2.14**.

Consider `CNS(=O)(=O)Cc1ccc(Nc2ncc(Cl)c(NC3CC3)n2)cc1` [Example 48], for which the logP is recorded as 1.37**.

Consider `CS(=O)(=O)c1ccc(Nc2ncc(Cl)c(NC3CC3)n2)cc1` [Example 50], for which the logP is 1.75**.

Turning to `CC(C)c1ccc(Nc2ncc(Cl)c(NCC3CC3)n2)cc1` [Example 54], the logP is listed as 2.62**.

`FC(F)(F)c1cnc(Nc2ccccc2)nc1NC1CC1` [Example 93]: the logP is recorded as 2.62**.

In the case of `NS(=O)(=O)c1ccc(Nc2ncc(Cl)c(NCC3CC3)n2)cc1` [compound 8], the logP is on record as 1.52**.

For the molecule `Clc1cccc(Nc2ncc(Cl)c(NCC3CC3)n2)c1` [compound 9], the logP was 2.7**.

Turning to `COc1cc(Nc2ncc(Cl)c(NCC3CC3)n2)cc(OC)c1` [compound 11], the logP is 2.09**.

As to `CC(=O)c1cccc(Nc2ncc(Cl)c(NCC3CC3)n2)c1` [compound 13], the logP is 1.87**.

Take `CN(C)S(=O)(=O)c1ccc(Nc2ncc(Cl)c(NCC3CC3)n2)cc1` [compound 14]: the logP is 2.36**.

With `NS(=O)(=O)c1cc(Nc2ncc(Cl)c(NC3CC3)n2)cc(C(F)(F)F)c1` [compound 17], the logP is on record as 2.48**.

With `CNS(=O)(=O)c1ccc(Nc2ncc(Cl)c(NCC3CC3)n2)cc1` [compound 20], the logP is listed as 1.87**.

With `CNS(=O)(=O)c1ccc(Nc2ncc(Cl)c(NC3CC3)n2)cc1` [compound 21], the logP is listed as 1.71**.

Consider `CCCCNS(=O)(=O)c1ccc(Nc2ncc(Cl)c(NCC3CC3)n2)cc1` [compound 23], for which the logP is 2.75**.

As to `NS(=O)(=O)c1ccc(Nc2ncc(Cl)c(NC3CC3)n2)cc1` [compound 25], the logP was 1.37**.

Take `Cc1cc(C)nc(NS(=O)(=O)c2ccc(Nc3ncc(Cl)c(NC4CC4)n3)cc2)n1` [compound 26]: the logP is reported as 1.72**.

For the molecule `O=S(=O)(Nc1ccccc1)c1ccc(Nc2ncc(Cl)c(NC3CC3)n2)cc1` [compound 27], the logP is on record as 2.56**.

For `C=CCNS(=O)(=O)c1ccc(Nc2ncc(Cl)c(NC3CC3)n2)cc1` [compound 31], the logP is 2.09**.

As to `COC(=O)c1ccc(Nc2ncc(Cl)c(NC3CC3)n2)cc1.Cl` [compound 36], the logP is on record as 2.25**.

As to `CCOC1(Nc2nc(Nc3ccccc3)ncc2Cl)CC1.Cl` [compound 38], the logP is reported as 2.23**.

Consider `CCOC1(Nc2nc(Nc3ccccc3)ncc2Cl)CC1` [compound 39], for which the logP is listed as 2.23**.

Take `Cl.Fc1cnc(Nc2ccccc2)nc1NC1CC1` [compound 41]: the logP was 1.45**.

As for `Fc1cnc(Nc2ccccc2)nc1NC1CC1` [compound 42], the logP is recorded as 1.45**.

Staying with this series, now noted: method *: HPLC reversed-phase C18, 40° C., 0.1% aqueous formic acid and acetonitrile, linear gradient 10% to 95% acetonitrile.
With `COC(=O)c1ccc(Nc2ncc(Cl)c(NC3CC3)n2)cc1` [Example 37], the logP was 2.23*.

In the case of `Cc1cnc(Nc2ccccc2)nc1NC1CC1` [Example 51], the logP is 1.5*.

Turning to `O=C1Cc2cc(Nc3ncc(Cl)c(NC4CC4)n3)ccc2N1` [Example 56], the logP is 1.05*.

In the case of `CC(C)(C)C(=O)Cc1ccc(Nc2ncc(Cl)c(NC3CC3)n2)cc1` [Example 59], the logP is 2.3*.

Take `C=CCS(=O)(=O)c1ccc(Nc2ncc(Cl)c(NC3CC3)n2)cc1` [Example 61]: the logP is listed as 2.18*.

For `CC(=O)N(c1ccc(Nc2ncc(Cl)c(NC3CC3)n2)cc1)C1CC1` [Example 63], the logP was 1.62*.

Consider `CC1(C(=O)Nc2ccc(Nc3ncc(Cl)c(NC4CC4)n3)cc2)CC1` [Example 64], for which the logP was 1.66*.

For `CC(C)(CF)C(=O)Nc1ccc(Nc2ncc(Cl)c(NC3CC3)n2)cc1` [Example 67], the logP is 1.74*.

For `FC(F)(F)c1nc2ccc(Nc3ncc(Cl)c(NC4CC4)n3)cc2[nH]1` [Example 68], the logP is 1.55*.

Turning to `CSc1ccc(Nc2ncc(Cl)c(NC3CC3)n2)cc1` [Example 69], the logP is reported as 2.1*.

With `Clc1cnc(Nc2ccccc2)nc1NC1CC1` [Example 70], the logP is given as 1.28*.

Regarding `Clc1cnc(Nc2ccc3[nH]ccc3c2)nc1NC1CC1` [Example 71], the logP is listed as 1.47*.

For `CC(C)(C)C(=O)Nc1ccc(Nc2ncc(Cl)c(NC3CC3)n2)cc1` [Example 72], the logP was 1.81*.

For the molecule `O=C(c1ccc(Nc2ncc(Cl)c(NC3CC3)n2)cc1)C(F)(F)F` [Example 73], the logP is given as 3.62*.

In the case of `CSc1cccc(Nc2ncc(Cl)c(NC3CC3)n2)c1` [Example 74], the logP is on record as 2.21*.

`Oc1ccc(Nc2ncc(Cl)c(NC3CC3)n2)cc1` [Example 75]: the logP is reported as 1.12*.

For `Clc1cnc(Nc2ccccc2)nc1NC1CC1` [Example 76], the logP is reported as 1.84*.

In the case of `CN(C)S(=O)(=O)c1ccc(Nc2ncc(Cl)c(NC3CC3)n2)cc1.Cl` [Example 78], the logP is 2.26*.

Regarding `Fc1ccc(Nc2ncc(Cl)c(NC3CC3)n2)cc1` [Example 80], the logP is recorded as 1.8*.

In the case of `OCc1cccc(Nc2ncc(Cl)c(NC3CC3)n2)c1` [Example 82], the logP is given as 1.22*.

As for `O=C(Nc1cccc(Nc2ncc(Cl)c(NC3CC3)n2)c1)C1CC1` [Example 84], the logP was 1.62*.

Turning to `CC(C)C(=O)Nc1cccc(Nc2ncc(Cl)c(NC3CC3)n2)c1` [Example 86], the logP was 1.63*.

Regarding `Cc1ccc(S(=O)(=O)O)cc1.O=C1CCCN1c1ccc(Nc2ncc(Cl)c(NC3CC3)n2)cc1` [Example 89], the logP is listed as 1.44*.

Regarding `CC(C)(C)C(=O)Nc1cccc(Nc2ncc(Cl)c(NC3CC3)n2)c1` [Example 91], the logP is 1.98*.

Take `O=C(NCc1ccc(Nc2ncc(Cl)c(NC3CC3)n2)cc1)OCc1ccccc1` [Example 95]: the logP is given as 2.2*.

As for `O=C1CCCN1c1ccc(Nc2ncc(Br)c(NC3CC3)n2)cc1` [Example 97], the logP was 1.49*.

On to `Clc1cccc(Nc2ncc(Cl)c(NC3CC3)n2)c1` [compound 1], for which the logP was 2.7*.

For `CC(C)(C)OC(=O)N1CCN(c2ccc(Nc3ncc(Cl)c(NC4CC4)n3)cc2)CC1` [compound 7], the logP is 2.4*.

For `N#Cc1cnc(Nc2ccccc2)nc1NC1CC1` [compound 40], the logP is listed as 2.44*.

On to `CC(=O)c1ccc(Nc2ncc(Cl)c(NC3CC3)n2)cc1` [compound 44], for which the logP is given as 1.99*.

The series is the same for the next values; noted with them: pH 2.3; read-out: logP (pH2.3).
Regarding `NS(=O)(=O)c1cccc(Nc2ncc(Cl)c(NC3CC3)n2)c1` [Example 15, 3-{[5-Chloro-4-(cyclopropylamino)pyrimidin-2-yl]amino}benzenesulphonamide], the chromatographic logP was 1.37.

`CC(C)NC(=O)c1ccc(Nc2ncc(Cl)c(NC3CC3)n2)cc1` [Example 43, 4-{[5-Chloro-4-(cyclopropylamino)pyrimidin-2-yl]amino}-N-isopropylbenzamide]: the chromatographic logP was determined as 1.73.

Regarding `CC(C)Oc1ccc(Nc2ncc(Cl)c(NCC3CC3)n2)cc1` [Example 55, 5-Chloro-N^4-(cyclopropylmethyl)-N^2-(4-isopropoxyphenyl)pyrimidine-2,4-diamine hydrochloride], the chromatographic logP stood at 2.11.

As for `Ic1cnc(Nc2ccccc2)nc1NC1CC1` [N^4-Cyclopropyl-5-iodo-N^2-phenylpyrimidine-2,4-diamine], the chromatographic logP worked out at 1.82.

The series is the same for the next values; noted with them: reversed-phase C18 HPLC column; method **: HPLC reversed-phase C 18, 43° C., 0.1% aqueous phosphoric acid and acetonitrile, linear gradient 10% to 95% acetonitrile; read-out: logP.
With `NS(=O)(=O)c1cccc(Nc2ncc(Cl)c(NC3CC3)n2)c1` [Example 15, 3-{[5-Chloro-4-(cyclopropylamino)pyrimidin-2-yl]amino}benzenesulphonamide], the chromatographic logP came to 1.37.

For `CC(C)NC(=O)c1ccc(Nc2ncc(Cl)c(NC3CC3)n2)cc1` [Example 43, 4-{[5-Chloro-4-(cyclopropylamino)pyrimidin-2-yl]amino}-N-isopropylbenzamide], the chromatographic logP stood at 1.73.

As for `CC(C)Oc1ccc(Nc2ncc(Cl)c(NCC3CC3)n2)cc1` [Example 55, 5-Chloro-N^4-(cyclopropylmethyl)-N^2-(4-isopropoxyphenyl)pyrimidine-2,4-diamine hydrochloride], the chromatographic logP turned out to be 2.11.
